Literature values in patent publication US20050228335A1, “Physical, structural, mechanical, electrical and electromechanical features for use in association with electrically assisted delivery devices and systems” (priority 2004, published 2005).

Conditions: iontophoresis in vitro across human skin

SMILES | Cumulative delivery compared with lidocaine
CCCN(CC)C(CC)C(=O)Nc1c(C)cccc1C (centres unmarked) [etidocaine] | slightly greater delivery
CCN(CC)CCOC(=O)c1ccc(N)cc1 [procaine] | slightly greater delivery
